For the experiment, the system named is L1210 leukemia ip in BDF1 mice, survival T/C. Kind of experiment: NCI In Vivo Anticancer Drug Screen. Data for tumor model L1210 Leukemia (intraperitoneal) in B6D2F1 (BDF1) mice. The following applies: endpoint: mean survival time, higher = longer survival. Put shortly:
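Ratio derived from survival: compound-dosed mice over vehicle-dosed mice, all bearing a transplantable tumor.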

The mark [1] stands for this setting: dose: 62.5 mg/kg/injection, schedule: Q01DX010 (ip), vehicle: saline.
[2] abbreviates: dose: 125.0 mg/kg/injection, schedule: Q01DX010 (ip), vehicle: saline.

Molecules are shown by their SMILES. Several values for one entry are separate records, joined by “and”; a condition that tells them apart may be missing. Equal values may be shown once. Inconclusive results and toxic doses are left out.

As to `O=C(NN1C(=O)CSC1=S)c1ccc([N+](=O)[O-])s1`, the T/C is 96 % of control (dose: 50.0 mg/kg/injection, schedule: Q01DX005 (ip), vehicle: saline) and 102 % of control (dose: 100.0 mg/kg/injection, schedule: Q01DX005 (ip), vehicle: saline).

In the case of `CCn1cnc2c(=S)nc[nH]c21`, the T/C was 98 % of control (dose: 4.62 mg/kg/injection, schedule: Q01DX Z (ip), vehicle: carboxymethylcellulose (CMC)); 106 % of control (dose: 7.5 mg/kg/injection, schedule: Q01DX005 (ip), vehicle: other); 102 % of control (dose: 7.5 mg/kg/injection, schedule: Q01DX009 (ip), vehicle: other); 124 % of control (dose: 7.5 mg/kg/injection, schedule: Q01DX009 (sc), vehicle: other); 108 % of control (dose: 9.25 mg/kg/injection, schedule: Q01DX Z (ip), vehicle: carboxymethylcellulose (CMC)); 110 % of control (dose: 9.25 mg/kg/injection, schedule: Q01DX Z (oral), vehicle: carboxymethylcellulose (CMC)). Further, the T/C was 102 % of control (dose: 15.0 mg/kg/injection, schedule: Q01DX005 (ip), vehicle: other); 107 % of control (dose: 15.0 mg/kg/injection, schedule: Q01DX009 (ip), vehicle: other); 115 % of control (dose: 15.0 mg/kg/injection, schedule: Q01DX009 (oral), vehicle: other); 103 % of control (dose: 15.0 mg/kg/injection, schedule: Q01DX009 (sc), vehicle: other); 108 % of control (dose: 18.5 mg/kg/injection, schedule: Q01DX Z (ip), vehicle: carboxymethylcellulose (CMC)); 110 % of control (dose: 18.5 mg/kg/injection, schedule: Q01DX Z (oral), vehicle: carboxymethylcellulose (CMC)). Besides, the T/C reads like this: (dose: 30.0 mg/kg/injection, schedule: Q01DX005 (ip), vehicle: other) 116 % of control; (dose: 30.0 mg/kg/injection, schedule: Q01DX009 (ip), vehicle: other) 117 % of control; (dose: 30.0 mg/kg/injection, schedule: Q01DX009 (oral), vehicle: other) 115 % of control; (dose: 30.0 mg/kg/injection, schedule: Q01DX009 (sc), vehicle: other) 119 % of control; (dose: 30.0 mg/kg/injection, schedule: Q## X024 (ip), vehicle: other) 102 % of control; (dose: 31.3 mg/kg/injection, schedule: Q01DX009 (ip), vehicle: saline) 100 % of control and 104 % of control. For the same molecule, the T/C was 92 % of control and 95 % of control (dose: 31.3 mg/kg/injection, schedule: Q01DX010 (ip), vehicle: saline); 112 % of control (dose: 37.0 mg/kg/injection, schedule: Q01DX Z (ip), vehicle: carboxymethylcellulose (CMC)); 120 % of control (dose: 37.0 mg/kg/injection, schedule: Q01DX Z (oral), vehicle: carboxymethylcellulose (CMC)); 100 % of control (dose: 37.5 mg/kg/injection, schedule: Q## X003 (ip), vehicle: other); 123 % of control (dose: 60.0 mg/kg/injection, schedule: Q01DX005 (ip), vehicle: other); 107 % of control (dose: 60.0 mg/kg/injection, schedule: Q## X008 (ip), vehicle: other). The T/C by setting is: (dose: 60.0 mg/kg/injection, schedule: Q## X016 (ip), vehicle: other) 109 % of control; (dose: 60.0 mg/kg/injection, schedule: Q## X024 (ip), vehicle: other) 114 % of control; (dose: 62.5 mg/kg/injection, schedule: Q01DX009 (ip), vehicle: saline) 106 % of control and 112 % of control; under setting [1], 107 % of control and 108 % of control; (dose: 75.0 mg/kg/injection, schedule: Q01DX001 (ip), vehicle: other) 102 % of control; (dose: 75.0 mg/kg/injection, schedule: Q01DX001 (sc), vehicle: other) 113 % of control. The T/C is 98 % of control (dose: 75.0 mg/kg/injection, schedule: Q## X002 (ip), vehicle: other); 100 % of control (dose: 75.0 mg/kg/injection, schedule: Q## X003 (ip), vehicle: other); 151 % of control (dose: 120.0 mg/kg/injection, schedule: Q01DX009 (oral), vehicle: other); 117 % of control (dose: 120.0 mg/kg/injection, schedule: Q## X008 (ip), vehicle: other); 122 % of control under setting [2]; 108 % of control (dose: 150.0 mg/kg/injection, schedule: Q01DX001 (ip), vehicle: other). Moreover, the T/C was 117 % of control (dose: 150.0 mg/kg/injection, schedule: Q01DX001 (oral), vehicle: other); 117 % of control (dose: 150.0 mg/kg/injection, schedule: Q01DX001 (sc), vehicle: other); 101 % of control (dose: 150.0 mg/kg/injection, schedule: Q## X002 (ip), vehicle: other); 152 % of control (dose: 240.0 mg/kg/injection, schedule: Q## X016 (ip), vehicle: other); 165 % of control (dose: 240.0 mg/kg/injection, schedule: Q## X024 (ip), vehicle: other); 110 % of control and 124 % of control (dose: 250.0 mg/kg/injection, schedule: Q01DX009 (ip), vehicle: saline). Moreover, the T/C (dose: 300.0 mg/kg/injection, schedule: Q01DX001 (oral), vehicle: other) is 119 % of control; the T/C (dose: 300.0 mg/kg/injection, schedule: Q## X003 (ip), vehicle: other) is 162 % of control; the T/C (dose: 480.0 mg/kg/injection, schedule: Q## X008 (ip), vehicle: other) was 157 % of control; the T/C (dose: 480.0 mg/kg/injection, schedule: Q## X016 (ip), vehicle: other) is 153 % of control; the T/C (dose: 600.0 mg/kg/injection, schedule: Q01DX001 (oral), vehicle: other) was 123 % of control; the T/C (dose: 600.0 mg/kg/injection, schedule: Q01DX001 (sc), vehicle: other) was 121 % of control.

For `CCCCNc1ncnc2c1cnn2C`, the T/C was 94 % of control and 105 % of control (dose: 31.25 mg/kg/injection, schedule: Q01DX010 (ip), vehicle: saline); 102 % of control (dose: 50.0 mg/kg/injection, schedule: Q01DX Z (ip), vehicle: saline); 100 % of control under setting [1]; 100 % of control (dose: 75.0 mg/kg/injection, schedule: Q01DX Z (ip), vehicle: saline); 111 % of control (dose: 100.0 mg/kg/injection, schedule: Q01DX Z (ip), vehicle: saline); 97 % of control and 113 % of control under setting [2]. The T/C (dose: 200.0 mg/kg/injection, schedule: Q01DX001 (ip), vehicle: saline) was 98 % of control.

As to `CNC(=O)Oc1ccccc1C(=O)NCO`, the T/C by setting is: (dose: 50.0 mg/kg/injection, schedule: Q01DX001 (ip), vehicle: Klucel (hydroxypropylcellulose) (HPC)) 97 % of control; (dose: 50.0 mg/kg/injection, schedule: Q01DX009 (ip), vehicle: Klucel (hydroxypropylcellulose) (HPC)) 101 % of control and 107 % of control; (dose: 50.0 mg/kg/injection, schedule: Q04DX003 (ip), vehicle: Klucel (hydroxypropylcellulose) (HPC)) 97 % of control; (dose: 100.0 mg/kg/injection, schedule: Q01DX001 (ip), vehicle: Klucel (hydroxypropylcellulose) (HPC)) 101 % of control; (dose: 100.0 mg/kg/injection, schedule: Q04DX002 (ip), vehicle: Klucel (hydroxypropylcellulose) (HPC)) 94 % of control and 101 % of control; (dose: 100.0 mg/kg/injection, schedule: Q04DX003 (ip), vehicle: Klucel (hydroxypropylcellulose) (HPC)) 106 % of control. The T/C (dose: 200.0 mg/kg/injection, schedule: Q04DX002 (ip), vehicle: Klucel (hydroxypropylcellulose) (HPC)) is 98 % of control.

Regarding `O=C(Nc1ccccc1[N+](=O)[O-])OCc1ccc([N+](=O)[O-])cc1`, the T/C is, setting by setting: (dose: 100.0 mg/kg/injection, schedule: Q04DX003 (ip), vehicle: saline with Tween-80) 92 % of control; (dose: 200.0 mg/kg/injection, schedule: Q04DX003 (ip), vehicle: saline with Tween-80) 105 % of control; (dose: 400.0 mg/kg/injection, schedule: Q04DX003 (ip), vehicle: saline with Tween-80) 105 % of control.

Turning to `COC(=O)N1C2C=CC(C2)N1C(=O)OC`, the T/C was 96 % of control (dose: 50.0 mg/kg/injection, schedule: Q01DX009 (ip), vehicle: DMSO); 93 % of control (dose: 100.0 mg/kg/injection, schedule: Q01DX009 (ip), vehicle: DMSO); 97 % of control (dose: 100.0 mg/kg/injection, schedule: Q04DX003 (ip), vehicle: DMSO); 95 % of control (dose: 200.0 mg/kg/injection, schedule: Q04DX003 (ip), vehicle: DMSO).
